Test results: the supplement of paper PMC10307832

Legend:
Assay in all cases: relative viability (nuclei count vs DMSO), 5 days (fraction); higher = more cells survive
HCC-78 = system: HCC-78
Outline: (§1)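 Five library-drug doses in √10 steps were combined with a fixed anchor-drug dose, or a single drug was given alone, by pin tool to lung cancer cell lines in 1536-well plates the day after seeding. Nuclei were stained and counted after 5 days. Relative viability is the nuclei count in treated wells over that in vehicle wells, taken as the median of duplicate plates.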

NCI-H2087 = system: NCI-H2087
Outline: as §1

NCI-H1915 = system: NCI-H1915
Outline: as §1

H3255 = system: H3255
Outline: as §1

NCI-H661 = system: NCI-H661
Outline: as §1

NCI-H2405 = system: NCI-H2405
Outline: as §1

NCI-H2347 = system: NCI-H2347
Outline: as §1

NCI-H650 = system: NCI-H650
Outline: as §1

HCC-827 = system: HCC-827
Outline: as §1

ChaGo-K-1 = system: ChaGo-K-1
Outline: as §1

COR-L 105 = system: COR-L 105
Outline: as §1

PC-14 = system: PC-14
Outline: as §1

RERF-LC-KJ = system: RERF-LC-KJ
Outline: as §1

LCLC-97TM1 = system: LCLC-97TM1
Outline: as §1

LC-2-ad = system: LC-2-ad
Outline: as §1

EPLC-272H = system: EPLC-272H
Outline: as §1

NCI-H1666 = system: NCI-H1666
Outline: as §1

NCI-H520 = system: NCI-H520
Outline: as §1

NCI-H23 = system: NCI-H23
Outline: as §1

NCI-H647 = system: NCI-H647
Outline: as §1

NCI-H2126 = system: NCI-H2126
Outline: as §1

201T = system: 201T
Outline: as §1

Cc1sc2c(c1C)C(c1ccc(Cl)cc1)=N[C@@H](CC(=O)OC(C)(C)C)c1nnc(C)n1-2 [JQ1] + Cc1cc(Nc2cc(N3CCN(C)CC3)nc(Sc3ccc(NC(=O)C4CC4)cc3)n2)n[nH]1 [Tozasertib] (partner 0.1 µM)
relative viability (HCC-78; first compound 0.04 µM): 0.474
relative viability (HCC-78; first compound 0.1265 µM): 0.389
relative viability (HCC-78; first compound 0.4 µM): 0.4
relative viability (HCC-78; first compound 1.265 µM): 0.299
relative viability (HCC-78; first compound 4 µM): 0.302
relative viability (NCI-H2087; first compound 0.04 µM): 0.253
relative viability (NCI-H2087; first compound 0.1265 µM): 0.212
relative viability (NCI-H2087; first compound 0.4 µM): 0.205
relative viability (NCI-H2087; first compound 1.265 µM): 0.128
relative viability (NCI-H2087; first compound 4 µM): 0.144
relative viability (NCI-H1915; first compound 0.04 µM): 0.439
relative viability (NCI-H1915; first compound 0.1265 µM): 0.344
relative viability (NCI-H1915; first compound 0.4 µM): 0.325
relative viability (NCI-H1915; first compound 1.265 µM): 0.218
relative viability (NCI-H1915; first compound 4 µM): 0.15
relative viability (H3255; first compound 0.04 µM): 0.65
relative viability (H3255; first compound 0.1265 µM): 0.625
relative viability (H3255; first compound 0.4 µM): 0.64
relative viability (H3255; first compound 1.265 µM): 0.426
relative viability (H3255; first compound 4 µM): 0.204
relative viability (NCI-H661; first compound 0.04 µM): 0.37
relative viability (NCI-H661; first compound 0.1265 µM): 0.486
relative viability (NCI-H661; first compound 0.4 µM): 0.37
relative viability (NCI-H661; first compound 1.265 µM): 0.435
relative viability (NCI-H661; first compound 4 µM): 0.401
relative viability (NCI-H2405; first compound 0.04 µM): 0.716
relative viability (NCI-H2405; first compound 0.1265 µM): 0.712
relative viability (NCI-H2405; first compound 0.4 µM): 0.723
relative viability (NCI-H2405; first compound 1.265 µM): 0.584
relative viability (NCI-H2405; first compound 4 µM): 0.498
relative viability (NCI-H2347; first compound 0.04 µM): 0.539
relative viability (NCI-H2347; first compound 0.1265 µM): 0.554
relative viability (NCI-H2347; first compound 0.4 µM): 0.489
relative viability (NCI-H2347; first compound 1.265 µM): 0.308
relative viability (NCI-H2347; first compound 4 µM): 0.237
relative viability (NCI-H650; first compound 0.04 µM): 0.657
relative viability (NCI-H650; first compound 0.1265 µM): 0.541
relative viability (NCI-H650; first compound 0.4 µM): 0.368
relative viability (NCI-H650; first compound 1.265 µM): 0.21
relative viability (NCI-H650; first compound 4 µM): 0.177
relative viability (HCC-827; first compound 0.04 µM): 0.398
relative viability (HCC-827; first compound 0.4 µM): 0.328
relative viability (HCC-827; first compound 1.265 µM): 0.27
relative viability (HCC-827; first compound 4 µM): 0.213
relative viability (ChaGo-K-1; first compound 0.04 µM): 0.205
relative viability (ChaGo-K-1; first compound 0.1265 µM): 0.224
relative viability (ChaGo-K-1; first compound 0.4 µM): 0.168
relative viability (ChaGo-K-1; first compound 1.265 µM): 0.158
relative viability (ChaGo-K-1; first compound 4 µM): 0.164
relative viability (COR-L 105; first compound 0.04 µM): 0.359
relative viability (COR-L 105; first compound 0.1265 µM): 0.315
relative viability (COR-L 105; first compound 0.4 µM): 0.297
relative viability (COR-L 105; first compound 1.265 µM): 0.235
relative viability (COR-L 105; first compound 4 µM): 0.112
relative viability (PC-14; first compound 0.04 µM): 0.593
relative viability (PC-14; first compound 0.1265 µM): 0.385
relative viability (PC-14; first compound 0.4 µM): 0.314
relative viability (PC-14; first compound 1.265 µM): 0.125
relative viability (PC-14; first compound 4 µM): 0.0518
relative viability (RERF-LC-KJ; first compound 0.04 µM): 0.496
relative viability (RERF-LC-KJ; first compound 0.1265 µM): 0.299
relative viability (RERF-LC-KJ; first compound 0.4 µM): 0.315
relative viability (RERF-LC-KJ; first compound 1.265 µM): 0.222
relative viability (RERF-LC-KJ; first compound 4 µM): 0.213
relative viability (LCLC-97TM1; first compound 0.04 µM): 0.197
relative viability (LCLC-97TM1; first compound 0.1265 µM): 0.223
relative viability (LCLC-97TM1; first compound 0.4 µM): 0.171
relative viability (LCLC-97TM1; first compound 1.265 µM): 0.116
relative viability (LCLC-97TM1; first compound 4 µM): 0.146
relative viability (LC-2-ad; first compound 0.04 µM): 0.45
relative viability (LC-2-ad; first compound 0.1265 µM): 0.351
relative viability (LC-2-ad; first compound 0.4 µM): 0.351
relative viability (LC-2-ad; first compound 1.265 µM): 0.297
relative viability (LC-2-ad; first compound 4 µM): 0.232
relative viability (EPLC-272H; first compound 0.04 µM): 0.418
relative viability (EPLC-272H; first compound 0.1265 µM): 0.24
relative viability (EPLC-272H; first compound 0.4 µM): 0.373
relative viability (EPLC-272H; first compound 1.265 µM): 0.257
relative viability (EPLC-272H; first compound 4 µM): 0.258
relative viability (NCI-H1666; first compound 0.04 µM): 0.569
relative viability (NCI-H1666; first compound 0.1265 µM): 0.534
relative viability (NCI-H1666; first compound 0.4 µM): 0.484
relative viability (NCI-H1666; first compound 1.265 µM): 0.36
relative viability (NCI-H1666; first compound 4 µM): 0.354
relative viability (NCI-H520; first compound 0.04 µM): 0.508
relative viability (NCI-H520; first compound 0.1265 µM): 0.406
relative viability (NCI-H520; first compound 0.4 µM): 0.332
relative viability (NCI-H520; first compound 1.265 µM): 0.296
relative viability (NCI-H520; first compound 4 µM): 0.25
relative viability (NCI-H23; first compound 0.04 µM): 0.263
relative viability (NCI-H23; first compound 0.1265 µM): 0.253
relative viability (NCI-H23; first compound 0.4 µM): 0.279
relative viability (NCI-H23; first compound 1.265 µM): 0.147
relative viability (NCI-H23; first compound 4 µM): 0.138
relative viability (NCI-H647; first compound 0.04 µM): 0.353
relative viability (NCI-H647; first compound 0.1265 µM): 0.203
relative viability (NCI-H647; first compound 0.4 µM): 0.202
relative viability (NCI-H647; first compound 1.265 µM): 0.0994
relative viability (NCI-H647; first compound 4 µM): 0.0445
relative viability (NCI-H2126; first compound 0.04 µM): 0.8
relative viability (NCI-H2126; first compound 0.1265 µM): 0.849
relative viability (NCI-H2126; first compound 0.4 µM): 0.607
relative viability (NCI-H2126; first compound 1.265 µM): 0.419
relative viability (NCI-H2126; first compound 4 µM): 0.31
relative viability (201T; first compound 0.04 µM): 0.971
relative viability (201T; first compound 0.1265 µM): 0.651
relative viability (201T; first compound 0.4 µM): 0.613
relative viability (201T; first compound 1.265 µM): 0.566
relative viability (201T; first compound 4 µM): 0.383
